The record followed here is paper PMC2915651 (2010).

Assay [1] relates to [d(TGGGGT)]4 (DNA, G4) TGGGGT. Kind of assay: ITC. Conditions: 70 mM KCl; 20 mM phosphate, 0.1 mM EDTA, pH 7.0, 25 °C; identical sites, n = 2.0.
The test system of assay [2] is d(CGCGAATTCGCG)2 (DNA, duplex) CGCGAATTCGCG
Kind of assay: ITC. The settings on record: 70 mM KCl; 20 mM phosphate, 0.1 mM EDTA, pH 7.0, 25 °C; no resolvable isotherm; ligand 600–700 μM into 30 μM DNA.

Assay [3] shares this test system. Kind of assay: 1H NMR titration. The settings on record: 70 mM KCl; 10 mM phosphate, EDTA, pH 7.0, 25 °C; 1 mM DNA; shifts at most 0.03 ppm at 2:1.
Assay [4] deals with [d(TGGGGT)]4 (DNA, G4) TGGGGT. Kind of assay: 1H NMR titration. The settings on record: 70 mM KCl; 10 mM phosphate, EDTA, pH 7.0, 25 °C; 2 mM quadruplex; fast exchange.

Structures are written as SMILES.

On to `Cn1cc(NC(=O)c2cc(NC(=O)CN=C(N)N)cn2C)cc1C(=O)NCCC(=N)N`, for which the K b in assay [1] is on record as 1.2 ± 0.1 × 10^6 M^-1.

For `Cn1cc(NC(=O)c2cc(NC(=O)c3cc(N=CN)cn3C)cn2C)cc1C(=O)NCCC(=N)N`, the figures for the binding result in assay [2], in assay [3] and in assay [4] were “weak”, “weak” and “yes”, respectively. Moreover, the K b in assay [1] is 1.9 ± 0.2 × 10^6 M^-1.
